Results from patent publication US20170232083A1, “METHODS OF DIAGNOSIS AND TREATMENT OF CELIAC DISEASE IN CHILDREN” (priority 2014, published 2017).
“And” between values parts separate entries of the source, which are not always exact repeats. Equal entries are not always repeated. Non-standard residues stand in square brackets, D forms with d. pGlu = O=C1CC[C@@H](C(=O)O)N1

Tested on: peripheral blood mononuclear cells obtained from children
Experiment: IFNγ ELISpot PBMC assay after oral wheat bread challenge (Examples 1-2)
Assay type: cell-based, human
Settings: for T cell response in PBMC samples from children after gluten challenge: general increase in SFU in each child, Tables 2-5
Experimental: An oral wheat bread challenge was conducted in DQ2.5+ children and adolescents having Celiac disease. The age ranges were 3-5, 6-10 and 11-18 years of age. An ELISpot peripheral blood mononucleated cell (PBMC) assay was performed to measure the level of IFNγ released by the PBMCs after being contacted with peptide 1, peptide 2, peptide 3, or a combination thereof. The identities of peptides 1, 2, and 3 are shown below.
The values the rows starting from “Blank (SFU)” and ending at “Pept-1/2/3 (150)” are all spot forming unit (SFU) values. The values in the parentheses in the first column are the concentration of each peptide in micrograms that were added to the PBMCs (e.g., Pept-1 50=50 micrograms of Peptide 1, Pept-1/2/3 50=50 micrograms of each of Peptide 1, Peptide 2, and Peptide 3). Pept-1=Peptide 1, Pept-2=Peptide 2, Pept-3=Peptide 3, the amino acid identities of which are mentioned above. D-Gli=deamidated gliadin. WT-Gli=wild-type gliadin. D-Glut=deamidated gluten. WT-Glut=wild-type gluten.
IFNγ ELISpot responses in 9 older children (11-17 yo) and 6 younger children (3-10 yo) were stimulated by the mixture of peptides 1, 2, and 3 described in Example 1 (each peptide at a concentration of 25 ug/mL) or stimulated by deamidated gliadin (100 ug/mL) after 3-day wheat challenge (r2=0.8, p<0.0001). The ELISpot responses were similar using either the peptide mixture of the deamidated gliadin (FIG. 1).

## ELQPFPQPELPYPQPQ ([pGlu]LQPFPQPELPYPQPQ-NH2) [Peptide 1]
  most active peptides in gliadin for children: most active
  T cell response in PBMC samples from children after gluten challenge: induce a T cell response
Subject B, 5.0 × 10^5 cells per well, 25 micrograms, listed as Pept-1
  SFU, IFNγ ELISpot: 4 SFU and 3 SFU
Subject B, 5.0 × 10^5 cells per well, 100 micrograms, listed as Pept-1
  SFU, IFNγ ELISpot: 3 SFU and 2 SFU
Subject C, 5.0 × 10^5 cells per well, 25 micrograms, listed as Pept-1
  SFU, IFNγ ELISpot: 10 SFU and 5 SFU
Subject C, 5.0 × 10^5 cells per well, 50 micrograms, listed as Pept-1
  SFU, IFNγ ELISpot: 6 SFU and 5 SFU
Subject D, 4.0 × 10^5 cells per well, 25 micrograms, listed as Pept-1
  SFU, IFNγ ELISpot: 28 SFU and 32 SFU
Subject D, 4.0 × 10^5 cells per well, 50 micrograms, listed as Pept-1
  SFU, IFNγ ELISpot: 23 SFU and 31 SFU
Subject D, 4.0 × 10^5 cells per well, 100 micrograms, listed as Pept-1
  SFU, IFNγ ELISpot: 32 SFU and 25 SFU
Subject E, 5.0 × 10^5 cells per well, 25 micrograms, listed as Pept-1
  SFU, IFNγ ELISpot: 177 SFU and 139 SFU
Subject E, 5.0 × 10^5 cells per well, 50 micrograms, listed as Pept-1
  SFU, IFNγ ELISpot: 160 SFU and 144 SFU
Subject E, 5.0 × 10^5 cells per well, 100 micrograms, listed as Pept-1
  SFU, IFNγ ELISpot: 139 SFU and 153 SFU
Subject F, 5.0 × 10^5 cells per well, 25 micrograms, listed as Pept-1
  SFU, IFNγ ELISpot: 151 SFU and 146 SFU
Subject F, 5.0 × 10^5 cells per well, 50 micrograms, listed as Pept-1
  SFU, IFNγ ELISpot: 186 SFU and 147 SFU
Subject F, 5.0 × 10^5 cells per well, 100 micrograms, listed as Pept-1
  SFU, IFNγ ELISpot: 166 SFU and 138 SFU
Subject G, 4.0 × 10^5 cells per well, 25 micrograms, listed as Pept-1
  SFU, IFNγ ELISpot: 8 SFU and 14 SFU
Subject G, 4.0 × 10^5 cells per well, 50 micrograms
  SFU, IFNγ ELISpot: 10 SFU
Subject H, 3.5 × 10^5 cells per well, 25 micrograms, listed as Pept-1
  SFU, IFNγ ELISpot: 14 SFU and 13 SFU
Subject H, 3.5 × 10^5 cells per well, 50 micrograms
  SFU, IFNγ ELISpot: 8 SFU
Subject H, 3.5 × 10^5 cells per well, 100 micrograms, listed as Pept-1
  SFU, IFNγ ELISpot: 9 SFU and 8 SFU
Subject I, 5.0 × 10^5 cells per well, 25 micrograms, listed as Pept-1
  SFU, IFNγ ELISpot: 6 SFU and 7 SFU
Subject J, 5.0 × 10^5 cells per well, 25 micrograms, listed as Pept-1
  SFU, IFNγ ELISpot: 103 SFU and 109 SFU
Subject J, 5.0 × 10^5 cells per well, 50 micrograms, listed as Pept-1
  SFU, IFNγ ELISpot: 107 SFU and 92 SFU
Subject J, 5.0 × 10^5 cells per well, 100 micrograms, listed as Pept-1
  SFU, IFNγ ELISpot: 109 SFU and 111 SFU
Subject K, 3.2 × 10^5 cells per well, 25 micrograms, listed as Pept-1
  SFU, IFNγ ELISpot: 33 SFU and 28 SFU
Subject K, 3.2 × 10^5 cells per well, 50 micrograms, listed as Pept-1
  SFU, IFNγ ELISpot: 28 SFU and 20 SFU
Subject K, 3.2 × 10^5 cells per well, 100 micrograms, listed as Pept-1
  SFU, IFNγ ELISpot: 24 SFU and 38 SFU
Subject L, 3.5 × 10^5 cells per well, 25 micrograms, listed as Pept-1
  SFU, IFNγ ELISpot: 10 SFU and 9 SFU
Subject L, 3.5 × 10^5 cells per well, 100 micrograms, listed as Pept-1
  SFU, IFNγ ELISpot: 14 SFU and 7 SFU
Subject M, 2.3 × 10^5 cells per well, 25 micrograms, listed as Pept-1
  SFU, IFNγ ELISpot: 34 SFU and 18 SFU
Subject M, 2.3 × 10^5 cells per well, 50 micrograms, listed as Pept-1
  SFU, IFNγ ELISpot: 32 SFU and 30 SFU
Subject M, 2.3 × 10^5 cells per well, 100 micrograms, listed as Pept-1
  SFU, IFNγ ELISpot: 45 SFU and 40 SFU
Subject N, 2.4 × 10^5 cells per well, 25 micrograms, listed as Pept-1
  SFU, IFNγ ELISpot: 4 SFU and 6 SFU
Subject N, 2.4 × 10^5 cells per well, 100 micrograms, listed as Pept-1
  SFU, IFNγ ELISpot: 5 SFU and 3 SFU
Subject P, 3.0 × 10^5 cells per well, 0.1 micrograms, listed as Pept-1
  SFU, IFNγ ELISpot: 16 SFU and 15 SFU
Subject P, 3.0 × 10^5 cells per well, 0.5 micrograms, listed as Pept-1
  SFU, IFNγ ELISpot: 21 SFU and 24 SFU
Subject P, 3.0 × 10^5 cells per well, 1 micrograms, listed as Pept-1
  SFU, IFNγ ELISpot: 49 SFU and 31 SFU
Subject P, 3.0 × 10^5 cells per well, 2.5 micrograms, listed as Pept-1
  SFU, IFNγ ELISpot: 45 SFU
Subject Q, 3.0 × 10^5 cells per well, 0.1 micrograms, listed as Pept-1
  SFU, IFNγ ELISpot: 12 SFU and 18 SFU
Subject Q, 3.0 × 10^5 cells per well, 0.5 micrograms, listed as Pept-1
  SFU, IFNγ ELISpot: 34 SFU and 32 SFU
Subject Q, 3.0 × 10^5 cells per well, 1 micrograms, listed as Pept-1
  SFU, IFNγ ELISpot: 45 SFU and 36 SFU
Subject R, 3.0 × 10^5 cells per well, 0.1 micrograms, listed as Pept-1
  SFU, IFNγ ELISpot: 12 SFU and 16 SFU
Subject R, 3.0 × 10^5 cells per well, 0.5 micrograms, listed as Pept-1
  SFU, IFNγ ELISpot: 21 SFU and 26 SFU
Subject R, 3.0 × 10^5 cells per well, 1 micrograms, listed as Pept-1
  SFU, IFNγ ELISpot: 22 SFU and 21 SFU
Subject S, 3.0 × 10^5 cells per well, 0.1 micrograms, listed as Pept-1
  SFU, IFNγ ELISpot: 2 SFU and 4 SFU
Subject S, 3.0 × 10^5 cells per well, 0.5 micrograms, listed as Pept-1
  SFU, IFNγ ELISpot: 1 SFU and 2 SFU
Subject S, 3.0 × 10^5 cells per well, 1 micrograms, listed as Pept-1
  SFU, IFNγ ELISpot: 1 SFU and 2 SFU
Subject T, 3.0 × 10^5 cells per well, 0.1 micrograms, listed as Pept-1
  SFU, IFNγ ELISpot: 20 SFU and 18 SFU
Subject T, 3.0 × 10^5 cells per well, 0.5 micrograms, listed as Pept-1
  SFU, IFNγ ELISpot: 34 SFU and 31 SFU
Subject T, 3.0 × 10^5 cells per well, 1 micrograms, listed as Pept-1
  SFU, IFNγ ELISpot: 55 SFU and 60 SFU
Subject U, 3.0 × 10^5 cells per well, 0.1 micrograms, listed as Pept-1
  SFU, IFNγ ELISpot: 6 SFU and 7 SFU
Subject U, 3.0 × 10^5 cells per well, 0.5 micrograms, listed as Pept-1
  SFU, IFNγ ELISpot: 18 SFU and 20 SFU
Subject U, 3.0 × 10^5 cells per well, 1 micrograms, listed as Pept-1
  SFU, IFNγ ELISpot: 33 SFU and 24 SFU

## EPEQPIPEQPQPYPQQ ([pGlu]PEQPIPEQPQPYPQQ-NH2; SMILES CC[C@H](C)[C@H](NC(=O)[C@@H]1CCCN1C(=O)[C@H](CCC(N)=O)NC(=O)[C@H](CCC(=O)O)NC(=O)[C@@H]1CCCN1C(=O)[C@@H]1CCC(=O)N1)C(=O)N1CCC[C@H]1C(=O)N[C@@H](CCC(=O)O)C(=O)N[C@@H](CCC(N)=O)C(=O)N1CCC[C@H]1C(=O)N[C@@H](CCC(N)=O)C(=O)N1CCC[C@H]1C(=O)N[C@@H](Cc1ccc(O)cc1)C(=O)N1CCC[C@H]1C(=O)N[C@@H](CCC(N)=O)C(=O)N[C@@H](CCC(N)=O)C(N)=O) [Peptide 3]
Subject A, 5.0 × 10^5 cells per well, 50 micrograms
  SFU, IFNγ ELISpot: 0 SFU
Subject C, 5.0 × 10^5 cells per well, 50 micrograms
  SFU, IFNγ ELISpot: 3 SFU
Subject D, 4.0 × 10^5 cells per well, 25 micrograms, listed as Pept-3
  SFU, IFNγ ELISpot: 2 SFU and 4 SFU
Subject D, 4.0 × 10^5 cells per well, 50 micrograms
  SFU, IFNγ ELISpot: 2 SFU
Subject D, 4.0 × 10^5 cells per well, 100 micrograms, listed as Pept-3
  SFU, IFNγ ELISpot: 2 SFU and 4 SFU
Subject E, 5.0 × 10^5 cells per well, 25 micrograms
  SFU, IFNγ ELISpot: 3 SFU
Subject E, 5.0 × 10^5 cells per well, 50 micrograms
  SFU, IFNγ ELISpot: 6 SFU
Subject E, 5.0 × 10^5 cells per well, 100 micrograms, listed as Pept-3
  SFU, IFNγ ELISpot: 3 SFU and 4 SFU
Subject G, 4.0 × 10^5 cells per well, 25 micrograms
  SFU, IFNγ ELISpot: 0 SFU
Subject H, 3.5 × 10^5 cells per well, 25 micrograms, listed as Pept-3
  SFU, IFNγ ELISpot: 1 SFU and 2 SFU
Subject H, 3.5 × 10^5 cells per well, 50 micrograms, listed as Pept-3
  SFU, IFNγ ELISpot: 2 SFU and 4 SFU
Subject I, 5.0 × 10^5 cells per well, 50 micrograms
  SFU, IFNγ ELISpot: 1 SFU
Subject J, 5.0 × 10^5 cells per well, 25 micrograms, listed as Pept-3
  SFU, IFNγ ELISpot: 4 SFU and 2 SFU
Subject J, 5.0 × 10^5 cells per well, 50 micrograms, listed as Pept-3
  SFU, IFNγ ELISpot: 2 SFU and 3 SFU
Subject J, 5.0 × 10^5 cells per well, 100 micrograms, listed as Pept-3
  SFU, IFNγ ELISpot: 1 SFU and 2 SFU
Subject K, 3.2 × 10^5 cells per well, 25 micrograms, listed as Pept-3
  SFU, IFNγ ELISpot: 2 SFU and 3 SFU
Subject K, 3.2 × 10^5 cells per well, 50 micrograms, listed as Pept-3
  SFU, IFNγ ELISpot: 2 SFU and 1 SFU
Subject L, 3.5 × 10^5 cells per well, 25 micrograms
  SFU, IFNγ ELISpot: 1 SFU
Subject M, 2.3 × 10^5 cells per well, 25 micrograms
  SFU, IFNγ ELISpot: 0 SFU
Subject M, 2.3 × 10^5 cells per well, 100 micrograms
  SFU, IFNγ ELISpot: 0 SFU
Subject N, 2.4 × 10^5 cells per well, 50 micrograms, listed as Pept-3
  SFU, IFNγ ELISpot: 2 SFU and 1 SFU
Subject N, 2.4 × 10^5 cells per well, 100 micrograms
  SFU, IFNγ ELISpot: 0 SFU
Subject P, 3.0 × 10^5 cells per well, 50 micrograms, listed as Pept-3
  SFU, IFNγ ELISpot: 8 SFU and 6 SFU
Subject Q, 3.0 × 10^5 cells per well, 50 micrograms, listed as Pept-3
  SFU, IFNγ ELISpot: 1 SFU and 2 SFU
Subject R, 3.0 × 10^5 cells per well, 50 micrograms, listed as Pept-3
  SFU, IFNγ ELISpot: 12 SFU and 9 SFU
Subject W, 3.0 × 10^5 cells per well, 50 micrograms
  SFU, IFNγ ELISpot: 8 SFU
Subject Y, 2.29 × 10^5 cells per well, 50 micrograms
  SFU, IFNγ ELISpot: 3 SFU
  T cell response in PBMC samples from children after gluten challenge: induce a T cell response
